Results taken from patent publication US20230220313A1, “COMPOSITION AND METHOD FOR INACTIVATING A VIRUS” (RNASSIST LIMITED, priority 2020, published 2023).
Where a name gives a salt, the structure may show the parent alone.

What was measured:
[1] = Viscosity by falling ball method; type: physicochemical; conditions: falling ball method at 20° C.
[2] = system: SARS-CoV-2; conditions: Welch et al (2020) J. Clin. Microbiology; cited from earlier work

Compound | viscosity [1] [cP] | inactivation of SARS-CoV-2 [2]
COCCOCCOCCOCCOC [Tetraethylene glycol dimethyl ether] | 3.3 | –
COCCOCCOCCOCCO [Tetraethylene glycol monomethyl ether] | 12 | –
Triton X-100 | – | not completely inactivated
CCCCCCCCCCCCOS(=O)(=O)[O-].[Na+] [SDS] | – | not completely inactivated
N#CS.N=C(N)N [Guanidine thiocyanate] | – | not completely inactivated
N=C(N)N [Guanidine HCl] | – | not completely inactivated
